Earlier results as cited in patent US20240091240A1, “TREATMENTS FOR BLOOD-BRAIN BARRIER DYSFUNCTION AND RECURRENT SEIZURES USING NOX/LOX/COX INHIBITORS” (University of Kentucky Research Foundation, priority 2022, published 2024).

System: subjects suffering from seizures
Conditions: dosage of 5 mg/kg and 10 mg/kg

CC1(C)Cc2c(-c3ccccc3)c(-c3ccc(Cl)cc3)c(CC(=O)O)n2C1 [licofelone]
brain capillary leakage: reduce brain capillary leakage
